In the NIST ThermoML archive (doi:10.1021/je049609w):

Tests used:
[1] = refractive index (Na D-line) (dimensionless); xn = mol fraction of the nth substance listed; conditions: 101 kPa, Liquid
[2] = xn = mol fraction of the nth substance listed; conditions: 101 kPa, Liquid

Clc1ccccc1Cl [1,2-dichlorobenzene] + C1COCCO1
Conditions | mass density, 298.15 K [kg/m3] | mass density, 303.15 K [kg/m3] | mass density, 308.15 K [kg/m3] | refractive index, 298.15 K | refractive index, 303.15 K | refractive index, 308.15 K | speed of sound, 298.15 K [m/s] | viscosity, 298.15 K [mPa·s] | viscosity, 303.15 K [mPa·s] | viscosity, 308.15 K [mPa·s]
[1], x2 = 0 | – | – | – | 1.5499 | 1.5476 | 1.545 | – | – | – | –
[1], x2 = 0.1025 | – | – | – | 1.5374 | 1.5333 | 1.5325 | – | – | – | –
[1], x2 = 0.203 | – | – | – | 1.5269 | 1.5246 | 1.5224 | – | – | – | –
[1], x2 = 0.2983 | – | – | – | 1.5171 | 1.5148 | 1.5125 | – | – | – | –
[1], x2 = 0.3965 | – | – | – | 1.5048 | 1.5023 | 1.4998 | – | – | – | –
[1], x2 = 0.4955 | – | – | – | 1.4924 | 1.4902 | 1.4879 | – | – | – | –
[1], x2 = 0.596 | – | – | – | 1.4799 | 1.4768 | 1.4738 | – | – | – | –
[1], x2 = 0.6976 | – | – | – | 1.4652 | 1.4628 | 1.4604 | – | – | – | –
[1], x2 = 0.7992 | – | – | – | 1.4513 | 1.4484 | 1.4455 | – | – | – | –
[1], x2 = 0.8971 | – | – | – | 1.4365 | 1.4337 | 1.4308 | – | – | – | –
[2], x2 = 0 | 1300.9 | 1295.4 | 1289.7 | – | – | – | 1280 | 1.324 | 1.214 | 1.105
[2], x2 = 0.1025 | 1278.5 | 1272.9 | 1267.3 | – | – | – | 1287 | 1.311 | 1.203 | 1.095
[2], x2 = 0.203 | 1255.8 | 1250.1 | 1244.5 | – | – | – | 1293 | 1.298 | 1.191 | 1.085
[2], x2 = 0.2983 | 1232.9 | 1227.3 | 1221.6 | – | – | – | 1299 | 1.285 | 1.181 | 1.076
[2], x2 = 0.3965 | 1208.5 | 1202.8 | 1197.1 | – | – | – | 1305 | 1.273 | 1.169 | 1.066
[2], x2 = 0.4955 | 1182.5 | 1176.9 | 1171.2 | – | – | – | 1312 | 1.26 | 1.158 | 1.056
[2], x2 = 0.596 | 1154.9 | 1149.3 | 1143.6 | – | – | – | 1319 | 1.247 | 1.147 | 1.047
[2], x2 = 0.6976 | 1125.6 | 1120 | 1114.3 | – | – | – | 1325 | 1.234 | 1.135 | 1.037
[2], x2 = 0.7992 | 1094.7 | 1089.1 | 1083.4 | – | – | – | 1332 | 1.221 | 1.124 | 1.027
[2], x2 = 0.8971 | 1063.3 | 1057.7 | 1051.9 | – | – | – | 1338 | 1.209 | 1.113 | 1.018

C1COCCO1 [1,4-dioxane] + CC(=O)N(C)C
x1 = 1
Conditions | mass density, 298.15 K [kg/m3] | mass density, 303.15 K [kg/m3] | mass density, 308.15 K [kg/m3] | refractive index, 298.15 K | refractive index, 303.15 K | refractive index, 308.15 K | speed of sound, 298.15 K [m/s] | viscosity, 298.15 K [mPa·s] | viscosity, 303.15 K [mPa·s] | viscosity, 308.15 K [mPa·s]
[1] | – | – | – | 1.4203 | 1.4164 | 1.4145 | – | – | – | –
[2] | 1028.6 | 1022.9 | 1017.2 | – | – | – | 1345 | 1.196 | 1.095 | 1.008

C1COCCO1 [1,4-dioxane] + CCCCO
Conditions | mass density, 298.15 K [kg/m3] | mass density, 303.15 K [kg/m3] | mass density, 308.15 K [kg/m3] | refractive index, 298.15 K | refractive index, 303.15 K | refractive index, 308.15 K | speed of sound, 298.15 K [m/s] | viscosity, 298.15 K [mPa·s] | viscosity, 303.15 K [mPa·s] | viscosity, 308.15 K [mPa·s]
[1], x1 = 0.1014 | – | – | – | 1.3999 | 1.3976 | 1.3952 | – | – | – | –
[1], x1 = 0.2015 | – | – | – | 1.4016 | 1.3992 | 1.3968 | – | – | – | –
[1], x1 = 0.2982 | – | – | – | 1.4032 | 1.4008 | 1.3984 | – | – | – | –
[1], x1 = 0.3995 | – | – | – | 1.4052 | 1.4028 | 1.4003 | – | – | – | –
[1], x1 = 0.4945 | – | – | – | 1.4071 | 1.4046 | 1.4022 | – | – | – | –
[1], x1 = 0.5993 | – | – | – | 1.4095 | 1.4069 | 1.4044 | – | – | – | –
[1], x1 = 0.7023 | – | – | – | 1.4119 | 1.4094 | 1.4068 | – | – | – | –
[1], x1 = 0.802 | – | – | – | 1.4145 | 1.4118 | 1.4093 | – | – | – | –
[1], x1 = 0.9017 | – | – | – | 1.4172 | 1.4145 | 1.4118 | – | – | – | –
[1], x1 = 1 | – | – | – | 1.4203 | 1.4164 | 1.4145 | – | – | – | –
[2], x1 = 0.1014 | 826.1 | 822.1 | 818.1 | – | – | – | 1249 | 2.15 | 1.926 | 1.703
[2], x1 = 0.2015 | 846.7 | 842.4 | 838.1 | – | – | – | 1260 | 1.757 | 1.602 | 1.447
[2], x1 = 0.2982 | 866.9 | 862.4 | 858 | – | – | – | 1270 | 1.489 | 1.347 | 1.204
[2], x1 = 0.3995 | 888.7 | 884 | 879.5 | – | – | – | 1281 | 1.327 | 1.196 | 1.066
[2], x1 = 0.4945 | 909.6 | 904.8 | 900.1 | – | – | – | 1291 | 1.241 | 1.13 | 1.03
[2], x1 = 0.5993 | 933.5 | 928.4 | 923.4 | – | – | – | 1301 | 1.177 | 1.081 | 0.985
[2], x1 = 0.7023 | 957.5 | 952.3 | 947.1 | – | – | – | 1310 | 1.153 | 1.063 | 0.972
[2], x1 = 0.802 | 981.1 | 975.8 | 970.4 | – | – | – | 1320 | 1.162 | 1.07 | 0.979
[2], x1 = 0.9017 | 1004.9 | 999.5 | 994 | – | – | – | 1332 | 1.17 | 1.078 | 0.986
[2], x1 = 1 | 1028.6 | 1022.9 | 1017.2 | – | – | – | 1345 | 1.196 | 1.095 | 1.008
